# Experimental data from patent US8129402B2 (priority 2002, dated 2012).
# Biological target: PrP^sc in ScN2a-22L cells (Mus musculus, UniProt P04925)
# Type: cell-based
# Details: ScN2a-22L cells, NIH Image J quantification
# Chain of PrP^sc in ScN2a-22L cells (P04925 23-230 limits assumed): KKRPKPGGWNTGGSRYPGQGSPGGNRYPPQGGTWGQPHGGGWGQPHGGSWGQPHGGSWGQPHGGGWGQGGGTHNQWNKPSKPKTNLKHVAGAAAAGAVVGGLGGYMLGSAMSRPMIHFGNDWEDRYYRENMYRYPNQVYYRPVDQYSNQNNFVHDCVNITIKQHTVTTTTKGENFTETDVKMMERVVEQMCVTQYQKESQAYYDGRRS
compound,measurement,value
CN(C)CCCN1c2ccccc2Sc2ccc(Cl)cc21 [chlorpromazine],inhibition of the accumulation of PrPsc (resistant to proteinase K),96%
